Tests used:
Test in all cases: Kinase selectivity, DiscoverX scanMAX Kinase assay panel (% control)
Format in all cases: binding
[1] = target: T1, kinases of the scanMAX Kinase assay panel (Homo sapiens, UniProt P36888, D835Y); conditions: FLT3(D835Y); 1 uM
T1 construct: purchased DiscoverX Co. (contract measurement) scanMAX Kinase assay panel
T1 sequence (P36888 27-993 D835Y): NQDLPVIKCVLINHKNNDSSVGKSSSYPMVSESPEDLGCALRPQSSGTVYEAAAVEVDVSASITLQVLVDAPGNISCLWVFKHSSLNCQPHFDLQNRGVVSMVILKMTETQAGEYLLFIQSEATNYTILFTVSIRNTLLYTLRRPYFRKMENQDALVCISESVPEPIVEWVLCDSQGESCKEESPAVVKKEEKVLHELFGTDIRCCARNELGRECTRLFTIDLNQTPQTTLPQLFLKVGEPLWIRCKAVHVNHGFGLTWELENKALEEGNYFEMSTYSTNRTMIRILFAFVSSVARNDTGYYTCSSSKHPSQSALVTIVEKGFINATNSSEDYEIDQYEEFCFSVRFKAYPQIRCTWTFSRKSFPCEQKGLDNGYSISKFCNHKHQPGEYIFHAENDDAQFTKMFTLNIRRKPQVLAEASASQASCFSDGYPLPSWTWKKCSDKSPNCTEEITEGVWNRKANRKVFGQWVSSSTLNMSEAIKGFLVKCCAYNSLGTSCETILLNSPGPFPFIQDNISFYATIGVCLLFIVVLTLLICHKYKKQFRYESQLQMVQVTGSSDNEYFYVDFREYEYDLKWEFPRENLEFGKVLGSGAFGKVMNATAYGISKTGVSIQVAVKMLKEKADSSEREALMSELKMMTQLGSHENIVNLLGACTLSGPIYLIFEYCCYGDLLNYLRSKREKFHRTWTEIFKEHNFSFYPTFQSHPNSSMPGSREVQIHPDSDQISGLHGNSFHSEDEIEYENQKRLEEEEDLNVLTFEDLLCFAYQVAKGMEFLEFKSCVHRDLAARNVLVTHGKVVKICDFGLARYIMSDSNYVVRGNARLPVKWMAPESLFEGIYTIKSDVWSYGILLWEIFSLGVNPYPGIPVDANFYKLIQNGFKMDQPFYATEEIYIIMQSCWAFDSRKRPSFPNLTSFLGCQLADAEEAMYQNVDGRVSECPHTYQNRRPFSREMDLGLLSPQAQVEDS
Outline: (§1)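 Single-point screen, 1 uM cpd in DMSO. % ctrl = (cpd − pos ctrl)/(neg ctrl − pos ctrl)×100; pos ctrl = 0%, DMSO neg ctrl = 100%. Hit cutoff <35%.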

[2] = target: T2, kinases of the scanMAX Kinase assay panel (Homo sapiens, UniProt Q13233); conditions: MAP3K1; 1 uM
T2 construct: purchased DiscoverX Co. (contract measurement) scanMAX Kinase assay panel
T2 sequence (Q13233 whole entry): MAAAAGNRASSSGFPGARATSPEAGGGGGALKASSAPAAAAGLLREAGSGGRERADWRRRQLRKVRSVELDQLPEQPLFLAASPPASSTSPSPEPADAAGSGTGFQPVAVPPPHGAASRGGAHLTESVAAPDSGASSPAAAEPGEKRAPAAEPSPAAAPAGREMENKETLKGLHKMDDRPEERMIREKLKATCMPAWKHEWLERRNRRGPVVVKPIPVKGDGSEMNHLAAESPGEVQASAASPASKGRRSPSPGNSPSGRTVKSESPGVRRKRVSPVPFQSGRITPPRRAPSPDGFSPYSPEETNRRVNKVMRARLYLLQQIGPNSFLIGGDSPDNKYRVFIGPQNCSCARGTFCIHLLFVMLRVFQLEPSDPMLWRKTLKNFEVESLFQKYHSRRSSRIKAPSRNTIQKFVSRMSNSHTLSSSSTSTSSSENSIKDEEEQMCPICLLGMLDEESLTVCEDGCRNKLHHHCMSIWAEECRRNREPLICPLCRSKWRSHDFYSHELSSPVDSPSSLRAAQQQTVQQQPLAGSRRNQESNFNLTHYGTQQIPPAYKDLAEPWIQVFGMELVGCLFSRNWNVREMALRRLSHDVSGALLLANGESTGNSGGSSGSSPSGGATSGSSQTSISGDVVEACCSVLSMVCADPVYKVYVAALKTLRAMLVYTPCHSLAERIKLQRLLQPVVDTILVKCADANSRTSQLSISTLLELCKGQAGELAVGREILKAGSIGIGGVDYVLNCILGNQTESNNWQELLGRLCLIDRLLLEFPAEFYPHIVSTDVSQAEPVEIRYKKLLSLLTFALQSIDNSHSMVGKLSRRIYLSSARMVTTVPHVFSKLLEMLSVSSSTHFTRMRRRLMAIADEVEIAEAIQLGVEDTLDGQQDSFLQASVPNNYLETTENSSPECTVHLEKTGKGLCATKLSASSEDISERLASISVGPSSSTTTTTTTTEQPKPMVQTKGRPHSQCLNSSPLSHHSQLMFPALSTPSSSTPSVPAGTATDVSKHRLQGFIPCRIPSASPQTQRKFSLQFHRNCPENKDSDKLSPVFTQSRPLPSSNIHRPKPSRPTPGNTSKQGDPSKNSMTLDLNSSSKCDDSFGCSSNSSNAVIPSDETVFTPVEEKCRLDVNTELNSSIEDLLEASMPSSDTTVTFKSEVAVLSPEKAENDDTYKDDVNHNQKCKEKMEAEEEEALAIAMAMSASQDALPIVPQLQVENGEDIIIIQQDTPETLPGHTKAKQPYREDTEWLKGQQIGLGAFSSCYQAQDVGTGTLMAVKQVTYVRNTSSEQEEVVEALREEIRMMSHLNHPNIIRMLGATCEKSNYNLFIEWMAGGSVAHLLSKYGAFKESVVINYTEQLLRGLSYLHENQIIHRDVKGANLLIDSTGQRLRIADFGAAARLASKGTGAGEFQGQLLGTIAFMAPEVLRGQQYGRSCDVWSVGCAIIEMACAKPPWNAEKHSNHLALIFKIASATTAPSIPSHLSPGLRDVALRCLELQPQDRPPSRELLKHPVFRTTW
Outline: as §1

[3] = target: T3, kinases of the scanMAX Kinase assay panel (Homo sapiens, UniProt Q12866); conditions: MERTK; 1 uM
T3 construct: purchased DiscoverX Co. (contract measurement) scanMAX Kinase assay panel
T3 sequence (Q12866 21-999): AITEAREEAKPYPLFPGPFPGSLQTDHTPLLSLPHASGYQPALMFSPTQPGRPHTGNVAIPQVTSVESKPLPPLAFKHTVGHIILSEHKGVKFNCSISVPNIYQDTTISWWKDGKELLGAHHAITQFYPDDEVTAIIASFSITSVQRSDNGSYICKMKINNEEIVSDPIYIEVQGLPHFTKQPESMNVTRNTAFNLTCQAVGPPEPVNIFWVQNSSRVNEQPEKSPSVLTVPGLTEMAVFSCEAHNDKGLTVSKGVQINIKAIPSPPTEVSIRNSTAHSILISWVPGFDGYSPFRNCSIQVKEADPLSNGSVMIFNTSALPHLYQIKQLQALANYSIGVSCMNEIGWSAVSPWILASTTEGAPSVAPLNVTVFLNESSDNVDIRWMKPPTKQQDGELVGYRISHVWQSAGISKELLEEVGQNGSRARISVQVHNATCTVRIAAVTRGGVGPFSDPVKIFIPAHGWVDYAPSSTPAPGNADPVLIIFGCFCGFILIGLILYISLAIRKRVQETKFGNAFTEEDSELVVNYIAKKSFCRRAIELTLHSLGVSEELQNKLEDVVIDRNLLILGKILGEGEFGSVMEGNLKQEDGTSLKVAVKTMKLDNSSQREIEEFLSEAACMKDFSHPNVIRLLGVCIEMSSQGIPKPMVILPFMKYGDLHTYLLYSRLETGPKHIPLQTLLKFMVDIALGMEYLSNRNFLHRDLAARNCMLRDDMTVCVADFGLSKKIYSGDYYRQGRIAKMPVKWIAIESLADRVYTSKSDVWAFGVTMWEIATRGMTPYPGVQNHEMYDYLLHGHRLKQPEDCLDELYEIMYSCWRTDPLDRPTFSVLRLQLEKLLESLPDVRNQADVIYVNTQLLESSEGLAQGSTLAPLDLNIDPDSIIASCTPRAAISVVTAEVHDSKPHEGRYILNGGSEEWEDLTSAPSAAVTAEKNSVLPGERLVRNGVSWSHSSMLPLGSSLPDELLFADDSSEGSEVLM
Outline: as §1

[4] = target: T4, kinases of the scanMAX Kinase assay panel (Homo sapiens, UniProt Q5VT25); conditions: MRCKA; 1 uM
T4 construct: purchased DiscoverX Co. (contract measurement) scanMAX Kinase assay panel
T4 sequence (Q5VT25 whole entry): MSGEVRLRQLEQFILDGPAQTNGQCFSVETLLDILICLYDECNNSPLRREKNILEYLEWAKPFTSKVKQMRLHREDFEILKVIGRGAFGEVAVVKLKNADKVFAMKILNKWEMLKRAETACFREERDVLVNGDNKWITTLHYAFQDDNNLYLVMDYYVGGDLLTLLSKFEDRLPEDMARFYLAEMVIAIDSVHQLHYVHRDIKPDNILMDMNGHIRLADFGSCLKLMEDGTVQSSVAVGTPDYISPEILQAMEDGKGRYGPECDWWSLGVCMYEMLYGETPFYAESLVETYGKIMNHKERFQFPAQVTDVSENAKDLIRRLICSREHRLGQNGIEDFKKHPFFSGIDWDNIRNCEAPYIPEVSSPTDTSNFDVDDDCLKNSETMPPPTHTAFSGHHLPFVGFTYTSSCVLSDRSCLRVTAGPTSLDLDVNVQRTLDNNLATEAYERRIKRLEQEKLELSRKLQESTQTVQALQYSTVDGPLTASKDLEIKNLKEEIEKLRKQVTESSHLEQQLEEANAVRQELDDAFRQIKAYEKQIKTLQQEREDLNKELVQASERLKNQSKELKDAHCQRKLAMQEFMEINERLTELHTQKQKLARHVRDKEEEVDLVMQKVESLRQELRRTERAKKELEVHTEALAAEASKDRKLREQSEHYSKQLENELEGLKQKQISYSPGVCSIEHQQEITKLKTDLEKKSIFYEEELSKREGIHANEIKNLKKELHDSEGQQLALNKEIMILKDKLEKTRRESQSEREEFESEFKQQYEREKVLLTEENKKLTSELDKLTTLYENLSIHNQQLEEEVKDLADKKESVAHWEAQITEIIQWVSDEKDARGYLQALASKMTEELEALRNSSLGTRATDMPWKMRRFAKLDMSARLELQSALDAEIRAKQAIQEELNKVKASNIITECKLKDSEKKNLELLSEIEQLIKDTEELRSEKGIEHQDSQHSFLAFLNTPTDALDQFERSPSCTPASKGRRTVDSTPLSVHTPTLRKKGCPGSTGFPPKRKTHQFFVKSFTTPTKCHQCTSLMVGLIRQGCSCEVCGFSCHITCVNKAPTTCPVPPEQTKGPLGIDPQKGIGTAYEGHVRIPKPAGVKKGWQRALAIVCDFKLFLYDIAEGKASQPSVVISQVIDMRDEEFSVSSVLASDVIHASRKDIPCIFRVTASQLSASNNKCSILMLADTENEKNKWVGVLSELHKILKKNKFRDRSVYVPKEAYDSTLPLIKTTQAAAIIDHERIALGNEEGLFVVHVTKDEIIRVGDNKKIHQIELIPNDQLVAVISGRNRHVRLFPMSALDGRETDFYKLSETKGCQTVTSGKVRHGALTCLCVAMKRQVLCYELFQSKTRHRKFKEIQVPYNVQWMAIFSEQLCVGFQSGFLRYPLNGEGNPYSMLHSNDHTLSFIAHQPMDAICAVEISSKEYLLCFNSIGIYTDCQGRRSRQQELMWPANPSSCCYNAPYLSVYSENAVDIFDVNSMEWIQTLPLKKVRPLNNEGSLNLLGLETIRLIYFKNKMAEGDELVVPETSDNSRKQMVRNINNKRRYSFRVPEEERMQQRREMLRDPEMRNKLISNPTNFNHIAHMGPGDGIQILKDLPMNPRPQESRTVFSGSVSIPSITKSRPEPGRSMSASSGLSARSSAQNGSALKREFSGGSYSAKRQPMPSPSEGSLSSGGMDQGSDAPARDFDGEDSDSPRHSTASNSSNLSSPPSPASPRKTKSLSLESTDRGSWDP
Outline: as §1

SMILES | remaining binding at 1 µM [1] [%] | remaining binding at 1 µM [2] [%] | remaining binding at 1 µM [3] [%] | remaining binding at 1 µM [4] [%]
CNc1nc(Nc2ccc(C(=O)N3CCOCC3)cc2OC)nc2[nH]cc(C#N)c12 [Example 1, 2-((2-methoxy-4-(morpholine-4-carbonyl)phenyl)amino)-4-(methylamino)-7H-pyrrolo[2,3-d]pyrimidine-5-carbonitrile] | 82 | 100 | 96 | 100
CC1(Nc2nc(Nc3cnn([C@H]4CCN(C5COC5)C[C@@H]4F)c3Cl)nc3[nH]cc(C#N)c23)CC1 [Example 52, 2-((5-chloro-1-((3S,4S)-3-fluoro-1-(oxetane-3-yl)piperidine-4-yl)-1H-pyrazole-4-yl)amino)((1-methylcyclopropyl)amino)-7H-pyrrolo[2,3-d]pyrimidine-5-carbonitrile] | 0 | 81 | 0 | 100
CCNc1nc(Nc2ccc(C(=O)N3CCC(N4CCOCC4)CC3)cc2OC)nc2[nH]cc(C(F)(F)F)c12 [Example 104, (4-((4-(ethylamino)-5-(trifluoromethyl)-7H-pyrrolo[2,3-d]pyrimidine-2-yl)amino)-3-methoxyphenyl)(4-morpholinopiperidine-1-yl)methanone] | 14 | 83 | 93 | 100

Reference: patent US11208412B2 (DAEGU-GYEONGBUK MEDICAL INNOVATION FOUNDATION, priority 2017, dated 2021)
